The assay deals with T1, Xaa-Pro dipeptidase (Homo sapiens) (UniProt P12955).
T1 sequence (whole entry): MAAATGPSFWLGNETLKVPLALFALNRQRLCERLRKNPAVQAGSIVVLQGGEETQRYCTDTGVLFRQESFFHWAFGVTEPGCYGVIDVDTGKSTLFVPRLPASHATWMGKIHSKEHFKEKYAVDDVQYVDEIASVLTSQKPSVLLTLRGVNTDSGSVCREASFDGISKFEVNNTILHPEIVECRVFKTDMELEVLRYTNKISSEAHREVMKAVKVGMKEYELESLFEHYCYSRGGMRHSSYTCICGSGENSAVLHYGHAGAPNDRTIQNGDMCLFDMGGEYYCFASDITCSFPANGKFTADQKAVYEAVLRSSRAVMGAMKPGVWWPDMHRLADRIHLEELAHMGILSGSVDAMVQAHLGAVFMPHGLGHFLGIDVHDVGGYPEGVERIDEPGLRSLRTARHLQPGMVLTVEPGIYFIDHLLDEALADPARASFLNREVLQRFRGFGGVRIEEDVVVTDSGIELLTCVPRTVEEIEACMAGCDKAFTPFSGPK

Ki' data for 1 compound are collected here from ChEMBL document CHEMBL1128857.

Description: Inhibitory constant for inhibition of prolidase in the second phase of biphasic inhibition

On to `C=C(OP(=O)(O)O)C(=O)O`, for which the Ki' worked out at 240 µM.
